Test results reported in US20160331754A1, “THERAPIES FOR TREATING CANCERS” (GILEAD SCIENCES, INC., priority 2014, published 2016).
Several values for one entry are separate records, joined by “and”; a condition that tells them apart may be missing. Equal values may be shown once.

Tests used:
p-AKT Ser473 [1] = assay: Flow cytometry, basal AKT phosphorylation in CD34+ progenitor cells from MF patients; assay type: cell-based, human; conditions: for effect on p-AKT in MF progenitor cells: basal and TPO-treated, dose dependent
Procedure: (§1) PBMCs were isolated from whole blood of myelofibrosis (MF) patients who had not received treatments (i.e. naïve patients) or received ruxolitinib (i.e. rux-treated patients). The cells were treated with 0.02, 0.2, or 2.0 μM of Compound B or vehicle (0.1% DMSO in 0.1% FBS/RPMI) for 2 hours at 37° C. The cells were then fixed, permeabilized, and stained for FACS analysis. Antibodies specific to p-AKT Ser473 and pS6RP Ser235/236 were used to detect AKT phosphorylation (p-AKT) and S6RP phosphorylation (p-S6RP) in CD34^+/CD3^−/CD14^−/CD19/CD66^− (BD Biosciences) gated cells using flow cytometry. The percentage of basal (i.e. untreated with TPO) AKT and S6RP phosphorylation were normalized to vehicle control. A two-tailed paired t-test (GraphPad Prism) was used to calculate p-values. Values of p<0.05 were considered significant.
(§2) Similar studies were conducted with PI3K inhibitors Compounds C and D. PBMC from MF patients had received ruxolitinib (rux) and MF patient had received Compound A. The cells were treated with Compounds C or D at 0, 20.0, 200.0, 2000.0 nM for 2 hours at 37° C. Cells were treated with TPO for 10 minutes. The percentage of basal p-AKT and p-S6RP levels were normalized to vehicle control and those of TPO-treated were normalized to TPO-treated vehicle control. The PI3Kδ inhibitors Compound C is referred by the chemical names of (S)-2-(1-((9H-purin-6-yl)amino)ethyl)-6-fluoro-3-phenylquinazolin-4(3H)-one.

pS6RP Ser235/236 [2] = assay: Flow cytometry, TPO-activated S6RP phosphorylation in CD34+ progenitor cells from MF patients; assay type: cell-based, human
Procedure: as §1
(§3) Also, PBMC cells from naïve or ruxolitinib treated patients were isolated and treated with Compound B and with TPO as described above. The percentage of TPO-activated AKT and S6RP phosphorylation were normalized to those of TPO-treated vehicle (“no TPO” values in Table 4). […] Also, the inhibition to PI3K signaling was dose-dependent to Compound B.
as §2

p-AKT Ser473 [3] = assay: Flow cytometry, TPO-activated AKT phosphorylation in CD34+ progenitor cells from MF patients; assay type: cell-based, human
Procedure: as §1, §3, §2

pS6RP Ser235/236 [4] = assay: Flow cytometry, basal S6RP phosphorylation in CD34+ progenitor cells from MF patients; assay type: cell-based, human; conditions: for effect on p-S6RP in MF progenitor cells: basal and TPO-treated, dose dependent
Procedure: as §1, §2

[5] = administered once a day; cited from earlier work
Ri-1 DLBCL cells = assay: Cell death assay (Annexin V/7AAD) in Ri-1 DLBCL cells; assay type: cell-based; conditions: 0 nM Compound B, 3 days
Procedure: (§4) Further, whole blood (WB) autologous B-cell depletion and cell-death induction assays were conducted as described in Mossner et al., Blood 115:4393-402, 2010. For cell death assay: Ri-1 DLBCL cells were seeded at 15,000 cells/well in 96-well plates. Cells were preincubated with Compound B or DMSO for 1 hour before the addition of antibody. Plates were incubated at 37° C. in a humidified CO2 chamber for 3 days. Cells were washed once with PBS and treated with Accutase for 15 minutes before being stained with Guava Nexin® reagent and analyzed on the Guava EasyCyte flow cytometer (Merck Millipore).
After 3 days of incubation, cell death was assessed by Annexin V/7AAD staining.

WIL2-S = assay: ADCC LDH release assay, purified NK cells against WIL2-S target cells; assay type: cell-based, human; conditions: for Percentage of ADCC, Palivizumab ADCC: Palivizumab (isotype control) 10 μg/mL; for Percentage of ADCC, obinutuzumab ADCC: obinutuzumab 10 μg/mL
CLL = conditions: patients with recurrent CLL; cited from earlier work
autologous B cells = assay: Whole blood (WB) autologous B-cell depletion assay; assay type: cell-based
Procedure: as §4
The percentage of deplete autologous B cells in a whole blood assay may represent the antibody potency.

[6] = 20 nM, Compound A-treated Cells
[7] = 200 nM, Compound A-treated Cells
[8] = 2000 nM, Compound A-treated Cells

In the case of `C[C@H](Nc1ncnc2[nH]cnc12)c1nc2ccc(F)cc2c(=O)n1-c1ccccc1` [Compound C, (S)-2-(1-((9H-purin-6-yl)amino)ethyl)-6-fluoro-3-phenylquinazolin-4(3H)-one], the “percentage of pAKT, Basal” value (p-AKT Ser473 [1]; 20 nM 2 h, Rux-treated Cells, vehicle=100) is reported as 88%, the “percentage of pAKT, Basal” value (p-AKT Ser473 [1]; [6]) is reported as 89% and the “percentage of pAKT, Basal” value (p-AKT Ser473 [1]; [7]) is reported as 82%. For the same compound, the “percentage of pAKT, Basal” value (p-AKT Ser473 [1]; 200 nM, Rux-treated Cells) was 90%, the “percentage of pAKT, Basal” value (p-AKT Ser473 [1]; [8]) was 75% and the “percentage of pAKT, Basal” value (p-AKT Ser473 [1]; 2000 nM, Rux-treated Cells) was 75%. For the same compound, the “effect on p-AKT in MF progenitor cells” value (p-AKT Ser473 [1]) was “inhibited”, the “percentage of pS6, TPO” value (pS6RP Ser235/236 [2]; [6]) was 66% and the “percentage of pS6, TPO” value (pS6RP Ser235/236 [2]; 20 nM, Rux-treated Cells) was 84%. The “percentage of pS6, TPO” value (pS6RP Ser235/236 [2]; [7]) was 70%, the “percentage of pS6, TPO” value (pS6RP Ser235/236 [2]; 200 nM, Rux-treated Cells) was 62% and the “percentage of pS6, TPO” value (pS6RP Ser235/236 [2]; [8]) was 36%. For the same compound, the “percentage of pS6, TPO” value (pS6RP Ser235/236 [2]; 2000 nM, Rux-treated Cells) was 42%, the “percentage of pAKT, TPO” value (p-AKT Ser473 [3]; [6]) was 65% and the “percentage of pAKT, TPO” value (p-AKT Ser473 [3]; 20 nM, Rux-treated Cells, TPO-treated vehicle=100) was 65%. For the same compound, the “percentage of pAKT, TPO” value (p-AKT Ser473 [3]; [7]) was 59%, the “percentage of pAKT, TPO” value (p-AKT Ser473 [3]; 200 nM, Rux-treated Cells) was 53% and the “percentage of pAKT, TPO” value (p-AKT Ser473 [3]; [8]) was 43%. For the same compound, the “percentage of pAKT, TPO” value (p-AKT Ser473 [3]; 2000 nM, Rux-treated Cells) was 24%, the “percentage of pS6, Basal” value (pS6RP Ser235/236 [4]; [6]) was 82% and the “percentage of pS6, Basal” value (pS6RP Ser235/236 [4]; 20 nM, Rux-treated Cells) was 65%. For the same compound, the “percentage of pS6, Basal” value (pS6RP Ser235/236 [4]; [7]) was 75%, the “percentage of pS6, Basal” value (pS6RP Ser235/236 [4]; 200 nM, Rux-treated Cells) was 59% and the “percentage of pS6, Basal” value (pS6RP Ser235/236 [4]; [8]) was 53%. For the same compound, the “percentage of pS6, Basal” value (pS6RP Ser235/236 [4]; 2000 nM, Rux-treated Cells) was 43% and the “effect on p-S6RP in MF progenitor cells” value (pS6RP Ser235/236 [4]) was “inhibited”.

In the case of `C[C@H](Nc1ncnc2[nH]cnc12)c1nc2ccccc2c(=O)n1-c1c(F)cccc1F` [Compound D, (S)-2-(1-((9H-purin-6-yl)amino)ethyl)-3-(2,6-difluorophenyl)quinazolin-4(3H)-one], the “effect on p-AKT in MF progenitor cells” value (p-AKT Ser473 [1]) is reported as “inhibited” and the “effect on p-S6RP in MF progenitor cells” value (pS6RP Ser235/236 [4]) is reported as “inhibited”.

For `Cc1cnc(Nc2ccc(OCCN3CCCC3)cc2)nc1Nc1cccc(S(=O)(=O)NC(C)(C)C)c1` [TG101348], the “maximum tolerated dose (MTD)” value [5] is given as 680 mg/day.

For “Palivizumab: used as an isotype control [reference compound]”, the “Percentage of total Annexin V+ cells” value (Ri-1 DLBCL cells; Palivizumab 10 μg/mL) was 13% and 19% and 14% and 21%, the “Percentage of ADCC, Palivizumab ADCC” value (WIL2-S; E:T 1:1) was 3% and 4% and −1% and 2% and the “Percentage of ADCC, Palivizumab ADCC” value (WIL2-S; E:T 3:1) was 8% and 11% and 10% and 6% and 4% and 5% and 7%. For the same compound, the “Percentage of ADCC, Palivizumab ADCC” value (WIL2-S; E:T 30:1) was 31% and 37% and 36% and 34% and 39% and 25% and 29% and 24%.

In the case of “alemtuzumab: monoclonal antibody, alternative immunotherapeutic for CLL”, the “median progression-free survival (PFS)” value (CLL) is given as 4.7 months.

In the case of “obinutuzumab: glycoengineered, type II, anti-CD20 antibody”, the “Percentage of total Annexin V+ cells” value (Ri-1 DLBCL cells; Obinutuzumab 0.1 μg/mL) is reported as 30% and 36% and 35% and 37%, the “Percentage of total Annexin V+ cells” value (Ri-1 DLBCL cells; Obinutuzumab 1 μg/mL) is reported as 45% and 50% and 49% and 46% and the “Percentage of total Annexin V+ cells” value (Ri-1 DLBCL cells; Obinutuzumab 10 μg/mL) is reported as 54% and 49% and 56%. The “Percentage of ADCC, obinutuzumab ADCC” value (WIL2-S; E:T 10:1) was 74% and 73% and 69% and 67% and 71%, the “Percentage of ADCC, obinutuzumab ADCC” value (WIL2-S; E:T 30:1) was 81% and 72% and 80% and 84% and 69% and 89% and 88% and the “Percentage of B-cell depletion in WB” value (autologous B cells; obinutuzumab 0.06 ng/mL alone) was −4% and −2% and 0%. The “Percentage of B-cell depletion in WB” value (autologous B cells; obinutuzumab 8 ng/mL alone) was 34% and 38% and 55% and 45%, the “Percentage of B-cell depletion in WB” value (autologous B cells; obinutuzumab 40 ng/mL alone) was 43% and 49% and 60% and 65% and the “Percentage of B-cell depletion in WB” value (autologous B cells; obinutuzumab 200 ng/mL alone) was 50% and 69%. The “Percentage of B-cell depletion in WB” value (autologous B cells; obinutuzumab 1000 ng/mL alone, donors S1-S4) was 52% and 63% and 71% and 56% and the “Percentage of B-cell depletion WB” value (autologous B cells; obinutuzumab 10 μg/mL, Compound B 0 nM) was 57% and 71% and 65%.

In the case of “ofatumumab: monoclonal antibody, alternative immunotherapeutic for CLL”, the “median progression-free survival (PFS)” value (CLL) is given as 5.8 months.
